The values below come from patent US20240255529A1, “NOVEL ASSAY AND NOVEL METHODS OF TREATING AGING-RELATED CONDITIONS” (The Progeria Research Foundation, priority 2021, published 2024).

A word on the Cmax: it is the peak of the concentration-time curve.

One data set deals with children with HGPS. Conditions: children with HGPS treated with lonafarnib; cited from earlier work.
The subject of another data set is patients with HGPS. Description: Life expectancy versus progerin decrease and time on lonafarnib therapy (dynamic model based on cRMST). The data set is classed as in vivo, human. The source says:
To quantify increase in life expectancy as it related to decrease in progerin and duration of time on lonafarnib therapy, the methodology by Yang et al. (2021), which proposes a dynamic model that utilizes a series of landmark time points (Dafni, 2011) based on the conditional restricted mean survival time (cRMST), was utilized. This analysis also adjusted for sex and age at baseline.
Next, the relationship between lonafarnib treatment duration and change in life expectancy with extent of change in plasma progerin was assessed (FIG. 7, Table 7). This analysis included samples from patients with a baseline pre-therapy and at least one on-treatment progerin measurement (N=65 patients). […] Three representative wide-ranging examples of on-therapy progerin decreases (1,000, 10,000 and 15,000 pg/mL) spanning 10 years on treatment are graphed in FIG. 7. Patient lifespan increased in all 3 examples.

For data set [1] the following is noted: children with HGPS treated with lonafarnib during a clinical trial; cited from earlier work.
Another data set relates to plasma progerin. Nature of the data set: Plasma progerin (SMC progerin immunoassay) in HGPS clinical trial patients on therapy. The class given is in vivo, human. The source says:
An SMC ultrasensitive immunoassay for the detection of plasma progerin was developed. Overall, the assay employed a sandwich immunoassay format with an anti-lamin A capture antibody coated on magnetic microparticles, and an anti-progerin specific detection antibody conjugated to a fluorescent tag (FIG. 1) run in a 96-well plate. Progerin-bound detection antibody was eluted and read as single molecules using a confocal laser.
The SMC assay for measuring Progerin was as previously described (Todd et al.), except that magnetic microparticles (MP) coated with capture antibodies and detection reagents were specific to the progerin assay (FIG. 1). Briefly, the progerin capture antibody (mouse Mab anti-Lamin A+C, clone: 131C3 Abcam, epitope between amino acid residues 319-566, common to Lamins A, C and progerin) was coated onto MP at 25 μg antibody/mg MP. Samples were exposed to the MP-capture antibody, to specifically bind analyte, followed by one plate wash to remove unbound material. Next, fluorescently labeled progerin-specific detection antibody (Mouse Mab, clone: 13A4, from Millipore, epitope between amino acids 604 and 611 of progerin, which cross the deletion region of lamin A), pre-diluted to 2,000 ng/mL in assay buffer and then filtered through a 0.2 μm filter (MilliporeSigma), was added to wells. Plates were then washed 4 times to remove any unbound detection antibody. All MPs were then transferred from the initial 96-well assay plate to a new plate to avoid eluting any non-specific plate-bound detection antibody. Progerin-bound detection antibody was then eluted by pH shift using a proprietary glycine buffer, transferred to a new plate and detected by SMC using the Erenna Immunoassay System software (SgxLink™). The raw signal data and the interpolated value data obtained from SgxLink were transferred to Excel where precision was then calculated for the replicate wells. The acceptance specification for raw signal and interpolated values was precision and recovery bias≤20%.
A 12-point standard curve of recombinant progerin (Abcam 93918) diluted in EMD standard diluent, a synthetic serum-based solution containing a proprietary mixture of Tris buffer and carrier protein (emdmillipore.com), was run on each plate in triplicate. The standard curve was used to determine progerin concentration in unknown samples. Samples were diluted in standard diluent so that anticipated progerin fell within the dynamic range of the standard curve. All reported progerin and SD are dilution-corrected. All samples were tested in duplicate, unless triplicate is specified.
Human clinical data was obtained from The PRF International Progeria Registry, Diagnostics Program, and Medical and Research Database (available online at progeriaresearch.org). HGPS plasma and serum were obtained from The PRF Cell and Tissue Bank (available online at progeriaresearch.org). Clinical trial samples were donated to the Bank from Boston Children's Hospital (BCH) with informed consent or approval from the BCH Committee on Clinical Investigation. Trial samples were collected in a fasting state, in the morning just prior to treatment dosing as trough samples, except pK samples which were collected at trough and then at specified times post-trough. Non-trial samples were not regulated as to time of day collected. Some nonHGPS healthy human plasma samples were obtained from ProMedDx. HGPS and nonHGPS plasma sample IDs were assigned HGPI and NPI prefixes, respectively.
For analysis, samples were fully thawed at RT for <5 min, lightly mixed, diluted in standard diluent before transferring into filter plate wells (MilliporeSigma MSBVN1210). Patient plasma volumes required for analysis were 200 or 100 μl (nonHGPS 1:1 and 1:2) and 8 μl (HGPS 1:25) to generate duplicates. Filter plates with sample were centrifuged for 10 minutes to pull sample through the filters. Filtrate was then assessed as described. […]

On to `NC(=O)N1CCC(CC(=O)N2CCC([C@H]3c4ncc(Br)cc4CCc4cc(Cl)cc(Br)c43)CC2)CC1` [lonafarnib], for which the “increased survival, estimated, on average” value in the data set on children with HGPS was 2.5 years. Moreover, the “estimated increase in life expectancy” value in the data set on patients with HGPS (13 patients on therapy for over 10 years) is ~6 years. In addition, the “increase in average lifespan” value with patients with HGPS (from 14.5 to over 20 years of age, 13 patients on therapy over 10 years) is “greater than 40%”. For the same compound, the Cmax in data set [1] is 2640 ng/mL. In the data set on plasma progerin (10 patients, extension 4.1±0.5 years, p=0.99), the “average progerin, consecutive Triple Therapy vs on-treatment lonafarnib monotherapy extension visits” value is “no significant differences”. The “average decreases in progerin from baseline” value in the data set with plasma progerin (ProLon1, 5 remaining visits, lonafarnib 150 mg/m^2, N=22-25, all p<0.0001) was 50-62%; in the data set with plasma progerin (long-term continuous therapy subgroup N=13, all subsequent time points, 150 mg/m^2, up to 9.8±0.5 years, p<0.0001) it was 56-74%. Besides, in the data set on plasma progerin (ProLon1, each of the 4 trial visits after the 8-month visit, N=22-25, all p<0.05), the “progerin at 150 mg/m^2 lonafarnib versus the 115 mg/m^2 dose” value is on record as “significantly decreased”. Moreover, the “average progerin decrease from baseline” value in the data set with plasma progerin (ProLon1, month 4, lonafarnib 115 mg/m^2, N=25, p<0.0001) turned out to be 48%; in the data set on plasma progerin (ProLon2, lonafarnib monotherapy 150 mg/m^2, dosing period, N=26, p<0.0001), 36.7%; with plasma progerin (long-term continuous therapy subgroup N=13, month 4, 115 mg/m^2, p<0.0001) it was 48%. Also, the “average difference of progerin trough (lower) from 2-, 4- and 8-hours post-dose” value with plasma progerin (ProLon1 pK samples, lonafarnib 115 mg/m^2, all p<0.05) is recorded as “about 3,000 pg/mL”. In addition, the “progerin post-dose (hours 1,2,4,6,8) vs. trough levels” value in the data set with plasma progerin (ProLon1 pK samples, lonafarnib 150 mg/m^2, all p≥0.05) is “did not demonstrate significant changes”. The “time to significant decrease of plasma progerin levels” value in the data set on plasma progerin (lonafarnib therapy, HGPS patients) is recorded as ≤ 4 months. Also, the “average decrease of trial patients' plasma progerin” value in the data set with plasma progerin (on therapy, HGPS trial patients) was “more than 14,000 pg/mL”. For the same compound, the “average on-therapy plasma progerin decrease from baseline untreated” value in the data set with plasma progerin (overall, all trials, HGPS patients, p<0.0001) is 38%. Further, the “average on-therapy plasma progerin” value in the data set with plasma progerin (overall, all trials, baseline untreated 32,726±12,659 pg/mL) is recorded as 20,211±10,190 pg/mL.
